Laboratory results published in patent US6576464B2, “Methods for providing differentiated stem cells” (Geron Corporation, priority 2000, dated 2003).

What was measured:
normal BJ cells = test: Ganciclovir treatment in vitro of normal cells carrying hTERT promoter/tk constructs; format: cell-based
Procedure: (§1) The ability of the hTERT promoter to specifically drive the expression of the thymidine kinase (tk) gene in tumor cells was tested using a variety of constructs: One construct, designated pGRN266, contains an EcoRI-FseI PCR fragment with the tk gene cloned into the EcoRI-FseI sites of pGRN263. pGRN263, containing approximately 2.5 kb of hTERT promoter sequence, is similar to pGRN150, but contains a neomycin gene as selection marker. pGRN267 contains an EcoRI-FseI PCR fragment with the tk gene cloned into the EcoRI-FseI sites of pGRN264. pGRN264, containing approximately 210 bp of hTERT promoter sequence, is similar to pGRN176, but contains a neomycin gene as selection marker. pGRN268 contains an EcoRI-XbaI PCR fragment with the tk gene cloned into the EcoRI-XbaI (unmethylated) sites of pGRN265. pGRN265, containing approximately 90 bp of hTERT promoter sequence, is similar to pGRN175, but contains a neomycin gene as selection marker.
(§2) These hTERT promoter/tk constructs, pGRN266, pGRN267 and pGRN268, were reintroduced into mammalian cells and tk/+stable clones (and/or mass populations) were selected. […] Ganciclovir treatment had no effect on normal BJ cells.

H9 hES cell line clones = test: Ganciclovir sensitivity screen of stable GRN376mod-transfected hES clones; format: cell-based, human; details: ten of ninety GRN376mod clones; ganciclovir at a concentration of 30 μg
Source text: To facilitate creation of stable cell lines genetically altered with the hTERT promoter/thymidine kinase construct, plasmid pGRN376 (Example X) was modified to delete most of the adenovirus sequence. The plasmid was digested with Stul and Not I, followed by blunting and re-ligation. The remaining vector contained the hTERT promoter/thymidine kinase construct, preceded by the transcription blocking sequence to prevent promotion of tk gene expression by promoter sequences upstream from the integration site in the genome. The modified vector was designated pGRN376mod.
Cultures of the H9 hES cell line were split 1:4 using PBS containing 0.5 mM EDTA, as described earlier, and plated in feeder-free culture in 6-well plates. Twenty-four hrs after plating, cells were cotransfected with 2 μg GRN376mod plus 0.5 μg of a plasmid encoding neomycin pho, using FuGENETM-6 as described above. Medium containing 200 μg/mL geneticin was added 48 h after transfection to select out transfected cells. After 7-10 days in geneticin-containing medium, 103 individual colonies were picked from the wells and individually plated in 24-well plates, which were then expanded by culturing for ˜7 days. Ninety individual clones were screened for sensitivity to the pro-drug ganciclovir at a concentration of 30 μg. […]

[1] = tested on: tumor lines 143B, 293, HT1080, Bxpc-3', DAOY and NIH3T3; test: Ganciclovir treatment in vitro of tk+ tumor lines carrying hTERT promoter/tk constructs; format: cell-based; details: tk/+ stable clones or mass populations with pGRN266, pGRN267, pGRN268
Procedure: as §1, §2

[2] = tested on: Undifferentiated H1 hES cells; test: Titration of GCV in TPAC vector treated hES cells; format: cell-based, human; details: hES cells transduced with pGRN376 at MOI 30; 5, 10, 20, 30, 40 μM tested; day 2
Procedure: Undifferentiated H1 cells were plated into 24 well plates (1 confluent well of a 6 well plate split into 24 wells of a 24 well plate). After 48 h, some wells were infected with pGRN376 at an MOI of 30. Four h after addition of the viral vector, medium was exchanged for new mEF-CM; some wells received medium supplemented with 5, 10, 20, 30, or 40 μM ganciclovir (GCV). Cells exposed to GCV were re-fed with MEF-CM containing GCV daily for 2 days. On day 2 after the initiation of GCV treatment, wells were harvested and analyzed by flow cytometry to assess changes in total cell number, and cell viability (measured by PI exclusion).

[3] = tested on: Undifferentiated hES lines H1 and H7; test: Comparison of hES lines: total cell number after pGRN376 and GCV; format: cell-based, human; details: mock-transduced cells
Procedure: Undifferentiated hES of lines designated H1 and H7 cells were plated into 24 well plates (1 confluent well of a 6 well plate split into 24 wells of a 24 well plate). […] Four h after addition of the viral vector, medium was exchanged for new mEF-CM; some wells received medium supplemented with 20 AM GCV. Cells exposed to GCV were re-fed with mEF-CM containing GCV daily for 3 days. On day 4 after the initiation of GCV treatment, wells were harvested and analyzed by flow cytometry to assess changes in total cell number.

H1 hES cells = test: Stable transfection of feeder-free hES cells with geneticin selection; format: cell-based, human; details: 200 μg/mL in mEF-conditioned medium
Procedure: To investigate whether the feeder-free hES cells undergo stable genetic modification, H1 hES cells maintained on Matrigel® were cotransfected with a mixture of 7.5 μg plasmid carrying β-galactosidase driven by the EF1a promoter, and 2.5 μg of plasmid carrying the PGK promoter driving the neophosphotransferase gene. The cells were transfected 48 h after plating them on Matrigel® in mEF-conditioned medium. 10 μg of plasmid plus 15 μl of FuGENE™ were incubated with the cells in 1 mnL for 4 h before adding 2.5 mL of mEF-conditioned medium. After 48 h, medium was exchanged for mEF-conditioned medium supplemented with 200 μg/mL geneticin. Cultures were maintained in this geneticin-containing medium with daily medium exchange for over 21 days. All mock-transfected cultures (i.e., those that received FUGENE™ mixed with water rather than plasmid) died within 48-72 h. Drug resistant colonies arose in the wells transfected with both FUGENE™ and plasmid at a frequency of about 1 in to 10^5 originally transfected cells. The colonies were maintained in geneticin-containing mEF-conditioned medium and expanded.

hTERT = hTERT expression by RT-PCR after exposure to differentiation factors; format: cell-based, human; details: after exposure of hES cells to the factor
Procedure: For radioactive relative quantification of individual gene products, QuantumRNA™ Alternate18S Internal Standard primers (Ambion, Austin Tex., USA) were employed according to the manufacturer's instructions. Briefly, the linear range of amplification of a particular primer pair was determined, then coamplified with the appropriate mixture of alternare18S primers:competimers to yield PCR products with coinciding linear ranges. Before addition of AmpliTaq™ (Roche) to PCR reactions, the enzyme was pre-incubated with the TaqStart™ antibody (ProMega) according to manufacturer's instructions. Radioactive PCR reactions were analyzed on 5% non-denaturing polyacrylamide gels, dried, and exposed to phosphoimage screens (Molecular Dynamics) for 1 hour. Screens were scanned with a Molecular Dynamics Storm 860 and band intensities were quantified using ImageQuant™ software. Results are expressed as the ratio of radioactivity incorporated into the hTERT or OCT-4 band, standardized to the radioactivity incorporated into the 18s band.
Primers and amplification conditions for particular markers are as follows.

hES cells = test: Neuron formation from directly differentiated hES cells with neurotrophin growth factors (count of β-tubulin positive cells); format: cell-based, human; details: fixed after 7 days of differentiation
Procedure: The effect of several members of the neurotrophin growth factor family was examined. hES cells were differentiated by harvesting with collagenase, dissociating, and reseeding onto poly-ornithine coated cover slips. The cells were plated into DMEM/F12+N2+10% FBS overnight. The following day, the serum was removed from the medium and replaced with 10 ng/mL human bFGF and the growth factor being tested. After 24 hours, bFGF was removed from the medium. These cultures were fed every other day. They were fixed after 7 days of differentiation and immunostained for analysis. The number of neurons was evaluated by counting cells positive for β-tubulin. Cultures maintained in the presence of 10 ng/mL brain derived neurotrophic factor (BDNF) formed approximately 3-fold more neurons than the control cultures. Cultures maintained in neurotrophin-3 (1 ng/mL) formed approximately 2-fold more neurons than control cultures.

With Nc1nc(O)c2ncn(COC(CO)CO)c2n1 [ganciclovir] the “effect of ganciclovir treatment on normal cells” value (normal BJ cells) was “no effect”, the “time in which essentially all undifferentiated cells died” value (H9 hES cell line clones) was 1 to 3 days and the “effect of ganciclovir treatment on tk+ tumor lines” value [1] was “selective destruction of all tumor lines tested”. The “optimal GCV concentration” value [2] was ~20 µM and the “toxicity induced by GCV alone, H7 compared with H1” value [3] was “less toxicity”.

For CN[C@@H]1[C@@H](O)[C@@H](O[C@@H]2[C@@H](O)[C@H](O[C@H]3O[C@H]([C@@H](C)O)[C@@H](O)[C@H](O)[C@H]3N)[C@@H](N)C[C@H]2N)OC[C@]1(C)O [geneticin], the “time in which all mock-transfected cultures died” value (H1 hES cells) was 48 to 72 h.

In the case of C[S+](C)[O-] [dimethyl sulfoxide], the “expression of hTERT” value (hTERT) is reported as “markedly decreased”.

B1: neurotrophin-3 (protein, UniProt P20783 139-257, looked up)
Neurotrophin-3: YAEHKSHRGEYSVCDSESLWVTDKSSAIDIRGHQVTVLGEIKTGNSPVKQYFYETRCKEARPVKNGCRGIDDKHWNSQCKTSQTYVRALTSENNKLVGWRWIRIDTSCVCALSRKIGRT
notes: neurotrophin growth factor
For B1, the “neurons formed relative to control cultures (cells positive for β-tubulin)” value (hES cells; 1 ng/mL) was “approximately 2 fold”.

B2: brain derived neurotrophic factor (protein, UniProt P23560 19-247, looked up)
Neurotrophic factor BDNF …: APMKEANIRGQGGLAYPGVRTHGTLESVNGPKAGSRGLTSLADTFEHVIEELLDEDQKVRPNEENNKDADLYTSRVMLSSQVPLEPPLLFLLEEYKNYLDAANMSMRVRRHSDPARRGELSVCDSISEWVTAADKKTAVDMSGGTVTVLEKVPVSKGQLKQYFYETKCNPMGYTKEGCRGIDKRHWNSQCRTTQSYVRALTMDSKKRIGWRFIRIDTSCVCTLTIKRGR
notes: neurotrophin growth factor
In the case of B2, the “neurons formed relative to control cultures (cells positive for β-tubulin)” value (hES cells; 10 ng/mL) is reported as “approximately 3 fold”.
